Measured values published in PubChem BioAssay AID1963985 (Molecular Pharmacology Branch, DTP, NCI, 2024).

System: 252836-082-R-J2-PDC tumor spheroids, viability
Assay: Anticancer human tumor 252836-082-R-J2-PDC patient-derived head and neck squamous cell carcinoma cell line growth inhibition [PI3K]
Conditions: spheroids with HUVEC and MSC; for IC50: curve of first compound; for viability, T/C: stronger effect = lower value
From the text: Combinatorial screen of targeted agents with the PI3K inhibitors inavolisib, alpelisib, duvelisib, and copanlisib in multi-cell type tumor spheroids
A high-throughput screen of multi-cell type tumor spheroids was designed to identify active combinations of targeted small molecules and PI3K pathway inhibitors. Complex spheroids include a stromal component modeled by human endothelial cells (HUVEC) and fibroblasts modeled by human mesenchymal stem cells (MSCs). The concentration ranges selected for each drug and investigational agent were based upon clinically achievable concentrations if the clinical Cmax of the agent was known.
Compounds. The drugs and investigational agents: inavolisib (NSC800729), alpelisib (NSC765974), duvelisib (NSC772469), copanlisib (NSC816437), ipatasertib (NSC767898), afuresertib (NSC778305), talazoparib (NSC767125), sapanisertib (NSC764658), selumetinib (NSC741078), tovorafenib (DAY101, NSC766906), vemurafenib (NSC761431), ravoxertinib (NSC781343), sotorasib (NSC818433), MRTX1133 (NSC 836407), abemaciclib (NSC 768073), palbociclib (NSC758247), venetoclax (NSC 766270), SY5609 (NSC837396), enzalutamide (NSC755605), and darolutamide (NSC825331), were obtained from the National Cancer Institute (NCI) Developmental Therapeutics Program Chemical Repository. The FDA-approved anticancer drug set is available from the NCI Developmental Therapeutics Program. […] The stock solutions were prepared in dimethyl sulfoxide (DMSO, Sigma-Aldrich, St. Louis, MO, cat. D2650) at 800-fold the tested concentration and stored at -70 degrees C prior to their use. All drugs and investigational agents were tested over a range starting from a high concentration at or near the clinical Cmax and decreasing in half-log increments. If the clinical Cmax for an agent had not been determined, the highest concentration tested was 10 microM.
Cell Culture. All cells were maintained in an incubator at 37 degrees C and 5% CO2 with 95% humidity. The PDC lines were cultured according to standard operating procedures established by the NCI PDMR (https://pdmr.cancer.gov/sops/default.htm). All PDCs were thawed and cultured in Matrigel-coated flasks prepared with a working solution of 1X Ham's F-12 nutrient mix, without supplementation (Invitrogen, Waltham, MA, cat. 11765054), 100 U/mL penicillin-streptomycin (Invitrogen, cat. 15140122), and 2.5% Matrigel (Corning Inc., Corning, NY, cat. 354248) for the first three passages. The 354836-022-R-J1-PDC, 475296-252-R-J1-PDC, and 997726-040-R-J2-PDC lines were cultured in 6A media, which includes advanced DMEM/F-12 (Thermo Fisher Scientific, cat. 12634028), 10 mM HEPES (Thermo Fisher Scientific, cat. 15630080), 1X GlutaMAX supplement (Thermo Fisher Scientific, cat. 35050061), 0.1 mg/mL primocin (InvivoGen, San Diego, CA, cat. ant-pm-2), 10% defined fetal bovine serum, heat inactivated (HyClone Laboratories Inc., Logan, UT, cat. SH30070.03HI), 50% L-WRN conditioned media (ATCC, cat. CRL-3276), 1.25 mM N-Acetyl-L-cysteine (Sigma-Aldrich, cat. A9165), 10 mM nicotinamide (Sigma-Aldrich, cat. N0636), 1X B-27 supplement (Thermo Fisher Scientific, cat. 17504044), 1X N-2 supplement (Thermo Fisher Scientific, cat. 17502048), and 10 microM Y-27632 dihydrochloride (Tocris Bioscience, Bristol, United Kingdom, cat. 1254). The 624824-186-R-J2-PDC line was cultured in 6C/Colon 1B media, which includes all 6A media components plus 50 ng/mL human EGF recombinant protein (Thermo Fisher Scientific, cat. PHG0311). […]
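Note: spheroids exposed to agents for seven days before readout.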
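Throughout, for viability, T/C: percent of vehicle DMSO control viability so 100% = untreated growth.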

SMILES: CCCS(=O)(=O)Nc1ccc(F)c(C(=O)c2c[nH]c3ncc(-c4ccc(Cl)cc4)cc23)c1F + CC(Nc1ccc2c(c1)OCCn1cc(N3C(=O)OCC3C(F)F)nc1-2)C(N)=O
- IC50 (second compound 0.00316 µM): 5.21 µM
- IC50 (second compound 0.01 µM): 5.49 µM
- IC50 (second compound 0.0316 µM): 4.3 µM
- IC50 (second compound 0.1 µM): 3.43 µM
- IC50 (second compound 0.316 µM): 3.84 µM
- IC50 (second compound 1 µM): < 0.0316 µM
- viability, T/C (second compound 0.00316 µM, first compound 0.0316 µM): 98%
- viability, T/C (second compound 0.00316 µM, first compound 0.1 µM): 90.1%
- viability, T/C (second compound 0.00316 µM, first compound 0.316 µM): 102%
- viability, T/C (second compound 0.00316 µM, first compound 1 µM): 103%
- viability, T/C (second compound 0.00316 µM, first compound 3.16 µM): 84.1%
- viability, T/C (second compound 0.00316 µM, first compound 10 µM): 5.37%
- viability, T/C (second compound 0.01 µM, first compound 0.0316 µM): 80.5%
- viability, T/C (second compound 0.01 µM, first compound 0.1 µM): 88.5%
- viability, T/C (second compound 0.01 µM, first compound 0.316 µM): 97.6%
- viability, T/C (second compound 0.01 µM, first compound 1 µM): 100%
- viability, T/C (second compound 0.01 µM, first compound 3.16 µM): 92.3%
- viability, T/C (second compound 0.01 µM, first compound 10 µM): 4.83%
- viability, T/C (second compound 0.0316 µM, first compound 0.0316 µM): 76.3%
- viability, T/C (second compound 0.0316 µM, first compound 0.1 µM): 90%
- viability, T/C (second compound 0.0316 µM, first compound 0.316 µM): 87%
- viability, T/C (second compound 0.0316 µM, first compound 1 µM): 91.2%
- viability, T/C (second compound 0.0316 µM, first compound 3.16 µM): 66.9%
- viability, T/C (second compound 0.0316 µM, first compound 10 µM): 3.26%
- viability, T/C (second compound 0.1 µM, first compound 0.0316 µM): 71.9%
- viability, T/C (second compound 0.1 µM, first compound 0.1 µM): 77.4%
- viability, T/C (second compound 0.1 µM, first compound 0.316 µM): 69.1%
- viability, T/C (second compound 0.1 µM, first compound 1 µM): 66.4%
- viability, T/C (second compound 0.1 µM, first compound 3.16 µM): 54.5%
- viability, T/C (second compound 0.1 µM, first compound 10 µM): 4.8%
- viability, T/C (second compound 0.316 µM, first compound 0.0316 µM): 64.4%
- viability, T/C (second compound 0.316 µM, first compound 0.1 µM): 67.4%
- viability, T/C (second compound 0.316 µM, first compound 0.316 µM): 65.8%
- viability, T/C (second compound 0.316 µM, first compound 1 µM): 48.9%
- viability, T/C (second compound 0.316 µM, first compound 3.16 µM): 59.7%
- viability, T/C (second compound 0.316 µM, first compound 10 µM): 4.86%
- viability, T/C (second compound 1 µM, first compound 0.0316 µM): 49.1%
- viability, T/C (second compound 1 µM, first compound 0.1 µM): 48.2%
- viability, T/C (second compound 1 µM, first compound 0.316 µM): 46%
- viability, T/C (second compound 1 µM, first compound 1 µM): 46.2%
- viability, T/C (second compound 1 µM, first compound 3.16 µM): 41.3%
- viability, T/C (second compound 1 µM, first compound 10 µM): 5.27%
